Experimental data taken from US11739074B2, “Ras inhibitors” (Revolution Medicines, Inc., priority 2019, dated 2023).
Read-outs that look alike come from different tables or passages of the source.

Tests used:
Assay type in all cases: cell-based
AsPC-1 (K-Ras G12D) [1] = assay: Potency assay: pERK in AsPC-1 cells; conditions: Homo sapiens
NCI-H358 (K-Ras G12C) = assay: CellTiter-Glo cell viability assay, H358; conditions: Homo sapiens, NCI-H358, 120 h
Outline: (§1)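 Luminescent viability readout on day 5, plates first brought to room temperature for ~30 min; compounds added straight to plated RAS-mutant cells. Values expressed as percent of mean DMSO signal, curves fitted with a four-parameter logistic model.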

AsPC-1 (K-Ras G12D) [2] = assay: CellTiter-Glo cell viability assay, AsPC-1; conditions: Homo sapiens, ASPC1, 120 h
Outline: as §1

[3] = ASPC1, AsPC-1 cells, K-Ras G12D, read-out: pERK EC50 (AsPC-1 KRAS G12D)
[4] = NCI-H358, K-Ras G12C, 5-day treatment, read-out: H358 Cell Viability IC50
[5] = AsPC-1, K-Ras G12D, 5-day treatment, read-out: AsPC-1 Cell Viability IC50
[6] = ASPC1, read-out: pERK EC50 (AsPC-1 KRAS G12D)
[7] = read-out: H358 Cell Viability IC50, NCI-H358, K-Ras G12C, 5-day treatment
[8] = read-out: AsPC-1 Cell Viability IC50, AsPC-1, K-Ras G12D, 5-day treatment

| SMILES | EC50 (AsPC-1 (K-Ras G12D) [1]; [3]) [nM] | IC50 (NCI-H358 (K-Ras G12C); [4]) [nM] | IC50 (AsPC-1 (K-Ras G12D) [2]; [5]) [nM] | EC50 (AsPC-1 (K-Ras G12D) [1]; [6]) [nM] | IC50 (NCI-H358 (K-Ras G12C); [7]) [nM] | IC50 (AsPC-1 (K-Ras G12D) [2]; [8]) [nM] |
| --- | --- | --- | --- | --- | --- | --- |
| CCn1c(-c2cccnc2[C@H](C)OC)c2c3cc(ccc31)-c1cc(O)cc(c1)C[C@H](NC(=O)[C@H](C(C)C)N1CC[C@]3(CCN(C(=O)[C@H]4CN4)C3)C1=O)C(=O)N1CCC[C@H](N1)C(=O)OCC(C)(C)C2 [Compound 146] | < 5000 | < 10 | 100 to 1000 |  |  |  |
| CCn1c(-c2cccnc2[C@H](C)OC)c2c3cc(ccc31)-c1csc(n1)C[C@H](NC(=O)[C@H](C(C)C)N(C)C(=O)N(C)CCN(C)C(=O)[C@@H]1CN1)C(=O)N1CCC[C@H](N1)C(=O)OCC(C)(C)C2 [Compound 217] | < 5000 | 10 to 100 | 100 to 1000 |  |  |  |
| CCn1c(-c2cccnc2[C@H](C)OC)c2c3cc(ccc31)-c1cc(O)cc(c1)C[C@H](NC(=O)[C@H](C(C)C)N(C)C(=O)CN(C)C(=O)[C@@H]1N[C@@H]1C1CCC1)C(=O)N1CCC[C@H](N1)C(=O)OCC(C)(C)C2 [Compound 287] |  |  |  | < 5000 | 10 to 100 | 100 to 1000 |
| CCn1c(-c2cccnc2[C@H](C)OC)c2c3cc(ccc31)-c1csc(n1)C[C@H](NC(=O)[C@H](C(C)C)N(C)C(=O)N1CCC(CN(C)C(=O)[C@H]3CN3)CC1)C(=O)N1CCC[C@H](N1)C(=O)OCC(C)(C)C2 [Compound 326] | < 5000 | 10 to 100 | 100 to 1000 |  |  |  |
| CCn1c(-c2cccnc2[C@H](C)OC)c2c3cc(ccc31)-c1csc(n1)C[C@H](NC(=O)[C@H](C(C)C)N(C)C(=O)N1CC[C@@H](N(C)C(=O)[C@@H]3CN3)C1)C(=O)N1CCC[C@H](N1)C(=O)OCC(C)(C)C2 [Compound 227] | < 5000 | 10 to 100 | 1000 to 10000 |  |  |  |
| CCn1c(-c2cccnc2[C@H](C)OC)c2c3cc(ccc31)-c1cc(O)cc(c1)C[C@H](NC(=O)[C@H](C(C)C)N(C)C(=O)[C@H]1CCN(C(=O)[C@H]3CN3)C1)C(=O)N1CCC[C@H](N1)C(=O)OCC(C)(C)C2 (single isomer, unassigned) [Compound 43A] | < 5000 | < 10 | 100 to 1000 |  |  |  |
| CCn1c(-c2cccnc2[C@H](C)OC)c2c3cc(ccc31)-c1cc(O)cc(c1)C[C@H](NC(=O)[C@H](C(C)C)N(C)C(=O)CN(C)C(=O)[C@@H]1CN1C1COC1)C(=O)N1CCC[C@H](N1)C(=O)OCC(C)(C)C2 (stereo partly drawn) [Compound 276] |  |  |  | < 5000 | 10 to 100 | 1000 to 10000 |
| CCn1c(-c2cccnc2[C@H](C)OC)c2c3cc(ccc31)-c1cc(O)cc(c1)C[C@H](NC(=O)[C@H](C(C)C)N(C)C(=O)[C@@H]1CN1)C(=O)N1CCC[C@H](N1)C(=O)OCC(C)(C)C2 [Compound 100] | < 5000 | 10 to 100 | 100 to 1000 |  |  |  |
| CCn1c(-c2cccnc2[C@H](C)OC)c2c3cc(ccc31)-c1csc(n1)C[C@H](NC(=O)[C@H](C(C)C)N(C)C(=O)N1CCN(C(=O)[C@H]3CN3)[C@H](C)C1)C(=O)N1CCC[C@H](N1)C(=O)OCC(C)(C)C2 [Compound 299] | < 5000 | < 10 | 100 to 1000 |  |  |  |
| CCn1c(-c2cccnc2[C@H](C)OC)c2c3cc(ccc31)-c1cc(O)cc(c1)C[C@H](NC(=O)[C@H](C1CCCC1)N(C)C(=O)CN(C)C(=O)[C@H]1N[C@H]1C1(OC)CC1)C(=O)N1CCC[C@H](N1)C(=O)OCC(C)(C)C2 (single isomer, unassigned) [Compound 322] | < 5000 | 10 to 100 | 1000 to 10000 |  |  |  |
| CCn1c(-c2cnccc2COC)c2c3cc(ccc31)-c1cc(O)cc(c1)C[C@H](NC(=O)[C@H](C(C)C)N(C)C(=O)[C@H]1CCN(C(=O)[C@H]3CN3)C1)C(=O)N1CCC[C@H](N1)C(=O)OCC(C)(C)C2 [Example 1, (3S)-1-((R)-aziridine-2-carbonyl)-N-((2S)-1-(((6^3S,4S)-1^1-ethyl-2^5-hydroxy-1^2-(4-(methoxymethyl)pyridin-3-yl)-10,10-dimethyl-5,7-dioxo-6^1,6^2,6^3,6^4,6^5,6^6-hexahydro-1^1H-8-oxa-1(5,3)-indola-6(1,3)-pyridazina-2(1,3)-benzenacycloundecaphane-4-yl)amino)-3-methyl-1-oxobutan-2-yl)-N-methylpyrrolidine-3-carboxamide] | < 5000 | < 10 | 1000 to 10000 |  |  |  |
| CCn1c(-c2cccnc2[C@H](C)OC)c2c3cc(ccc31)-c1cc(O)cc(c1)C[C@H](NC(=O)[C@H](C(C)C)N(C)C(=O)CN(C)C(=O)[C@H]1CN1CCCC#N)C(=O)N1CCC[C@H](N1)C(=O)OCC(C)(C)C2 (stereo partly drawn) [Compound 273] |  |  |  | < 5000 | < 10 | 100 to 1000 |
| CCn1c(-c2cc(N3CCN(C)CC3)cnc2[C@H](C)OC)c2c3cc(ccc31)-c1cc(O)cc(c1)C[C@H](NC(=O)[C@H](C1CCCC1)N(C)C(=O)CN(C)C(=O)[C@@H]1N[C@@H]1C1CC1)C(=O)N1CCC[C@H](N1)C(=O)OCC(C)(C)C2 [Compound 325] | < 5000 | < 10 | < 10 |  |  |  |
| CCn1c(-c2cccnc2[C@H](C)OC)c2c3cc(ccc31)-c1cc(O)cc(c1)C[C@H](NC(=O)[C@H](C(C)C)N(C)C(=O)CN(C)C(=O)[C@@H]1CN1CC1(C)COC1)C(=O)N1CCC[C@H](N1)C(=O)OCC(C)(C)C2 (stereo partly drawn) [Compound 280] |  |  |  | < 5000 | < 10 | 1000 to 10000 |
| CCn1c(-c2cccnc2[C@H](C)OC)c2c3cc(ccc31)-c1cc(O)cc(c1)C[C@H](NC(=O)[C@H](C(C)C)N(C)C(=O)CN(C)C(=O)[C@H]1CN1CCCOC)C(=O)N1CCC[C@H](N1)C(=O)OCC(C)(C)C2 (stereo partly drawn) [Compound 201] |  |  |  | < 5000 | < 10 | 100 to 1000 |
| CCn1c(-c2cccnc2[C@H](C)OC)c2c3cc(ccc31)-c1cc(O)cc(c1)C[C@H](NC(=O)[C@H](C(C)C)N(C)C(=O)CN(C)C(=O)[C@H]1C[C@@H]3N[C@@H]3C1)C(=O)N1CCC[C@H](N1)C(=O)OCC(C)(C)C2 [Compound 285] | < 5000 | 100 to 1000 | 10 to 100 |  |  |  |
| CCn1c(-c2cccnc2[C@H](C)OC)c2c3cc(ccc31)-c1csc(n1)C[C@H](NC(=O)[C@H](C(C)C)N(C)C(=O)N(C)CCN(C)C(=O)[C@H]1CN1)C(=O)N1CCC[C@H](N1)C(=O)OCC(C)(C)C2 [Compound 216] | < 5000 | 10 to 100 | 100 to 1000 |  |  |  |
| CCn1c(-c2cccnc2[C@H](C)OC)c2c3cc(ccc31)-c1cc(O)cc(c1)C[C@H](NC(=O)[C@H](C(C)C)N(C)C(=O)CN(C)C(=O)[C@@H]1N[C@H]1C(F)(F)F)C(=O)N1CCC[C@H](N1)C(=O)OCC(C)(C)C2 [Compound 260] |  |  |  | < 5000 | 10 to 100 | 100 to 1000 |
| CCn1c(-c2cccnc2[C@H](C)OC)c2c3cc(ccc31)-c1cc(O)cc(c1)C[C@H](NC(=O)[C@H](C(C)C)N1CCC3(CCN(C(=O)[C@H]4CN4)C3)C1=O)C(=O)N1CCC[C@H](N1)C(=O)OCC(C)(C)C2 (stereo partly drawn) [Compound 59] | < 5000 | < 10 | 100 to 1000 |  |  |  |
| CCn1c(-c2cccnc2[C@H](C)OC)c2c3cc(ccc31)-c1cc(O)cc(c1)C[C@H](NC(=O)[C@H](C(C)C)N(C)C(=O)CN(C)C(=O)[C@@H]1CN1CCOC)C(=O)N1CCC[C@H](N1)C(=O)OCC(C)(C)C2 (stereo partly drawn) [Compound 160] |  |  |  | < 5000 | < 10 | 100 to 1000 |
| CCn1c(-c2cccnc2[C@H](C)OC)c2c3cc(ccc31)-c1cc(O)cc(c1)C[C@H](NC(=O)[C@H](C(C)C)N(C)C(=O)[C@]1(C)CCCN1C(=O)[C@H]1CN1)C(=O)N1CCC[C@H](N1)C(=O)OCC(C)(C)C2 [Compound 243] | < 5000 | 100 to 1000 | 100 to 1000 |  |  |  |
| CCn1c(-c2cccnc2[C@H](C)OC)c2c3cc(ccc31)-c1cc(O)cc(c1)C[C@H](NC(=O)[C@H](C(C)C)N(C)C(=O)[C@@H]1CCN(C(=O)[C@H]3CN3)C1)C(=O)N1CCC[C@H](N1)C(=O)OCC(C)(C)C2 [Compound 186] | < 5000 | < 10 | 100 to 1000 |  |  |  |
| CCn1c(-c2cccnc2[C@H](C)OC)c2c3cc(ccc31)-c1csc(n1)C[C@H](NC(=O)[C@H](C(C)C)N(C)C(=O)N(C)CC1CN(C(=O)[C@@H]3CN3)C1)C(=O)N1CCC[C@H](N1)C(=O)OCC(C)(C)C2 [Compound 294] | < 5000 | 100 to 1000 | 1000 to 10000 |  |  |  |
| CCn1c(-c2cccnc2[C@H](C)OC)c2c3cc(ccc31)-c1csc(n1)C[C@H](NC(=O)[C@H](C(C)C)N(C)C(=O)N1CCCN(C(=O)[C@@H]3CN3)CC1)C(=O)N1CCC[C@H](N1)C(=O)OCC(C)(C)C2 [Compound 223] | < 5000 | 10 to 100 | 100 to 1000 |  |  |  |
